Assay results published in patent publication US5208240A, “8-substituted purines as selective adenosine receptor agents” (Merrell Dow Pharmaceuticals Inc., priority 1991, dated 1993).

Tests used:
A1-adenosine receptor = test: Adenosine A1 receptor binding (method of Goodman et al.)
Protocol: (§1) IC50 values for A1 -adenosine receptor binding is determined according to the method of Goodman et al. [Mol. Pharmacol. 21:329-35, 1982]. IC50 values for A2 -adenosine receptor binding is determined according to the method of Bruns et al. [Mol. Pharmacol. 29:331-46, 1986].

A2-adenosine receptor = target: T1, A2-adenosine receptor (Rattus norvegicus, UniProt P30543); test: Adenosine A2 receptor binding (method of Bruns et al.)
T1 construct: from tissue
T1 sequence (P30543 whole entry): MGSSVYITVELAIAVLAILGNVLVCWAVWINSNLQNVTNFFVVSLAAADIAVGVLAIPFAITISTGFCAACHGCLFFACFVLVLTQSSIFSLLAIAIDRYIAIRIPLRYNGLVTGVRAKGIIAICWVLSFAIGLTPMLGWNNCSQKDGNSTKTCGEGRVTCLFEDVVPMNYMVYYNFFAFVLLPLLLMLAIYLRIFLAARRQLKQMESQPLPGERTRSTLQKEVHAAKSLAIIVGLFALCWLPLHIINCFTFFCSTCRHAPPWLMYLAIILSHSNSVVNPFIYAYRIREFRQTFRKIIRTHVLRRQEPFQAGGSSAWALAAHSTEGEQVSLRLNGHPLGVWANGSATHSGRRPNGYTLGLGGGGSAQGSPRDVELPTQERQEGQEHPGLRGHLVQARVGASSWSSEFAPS
Protocol: as §1

Row | IC50 (A1-adenosine receptor) [nM] | IC50 (A2-adenosine receptor) [nM] | SMILES
1 | 60 | 1800 | CCCn1c(=O)c2nc(C(C)Cc3ccc(OCC(=O)NCCN)cc3)[nH]c2n(CCC)c1=O (single isomer, unassigned; (+)) [Compound 101993, (+)-N (2-Aminoethyl)-2-[4-[2-(2,3,6,9-tetrahydro-1,3-dipropyl-2,6-dioxo-1H-purin-8-yl)propyl]phenoxy]-acetamide]
2 | 10 | 300 | CCCn1c(=O)c2nc(C(C)Cc3ccc(OCC(=O)NCCN)cc3)[nH]c2n(CCC)c1=O (single isomer, unassigned; (-)) [Compound 100991, (-)-N-(2-Aminoethyl)-2-[4-[2-(2,3,6,9-tetrahydro-1,3-dipropyl-2,6-dioxo-1H-purin-8-yl)propyl]phenoxy]-acetamide]
3 | 14 | 36 | CCCn1c(=O)c2nc(C(C)Cc3ccc(OCC(=O)NCCN)cc3)[nH]c2n(CCC)c1=O (stereo not drawn) [Compound 101345, N-(2-Aminoethyl)-2-[4-[2-(2,3,6,9-tetrahydro-1,3-dipropyl-2,6-dioxo-1H-purin-8-yl)propyl]phenoxy]-acetamide]
4 | 1180 | > 10000 | CCCn1c(=O)c2nc(C(CC)c3ccc(OCC(=O)O)cc3)[nH]c2n(CCC)c1=O (stereo not drawn) [Compound 101673, 2-[4-[1-(2,3,6,9-Tetrahydro-1,3-dipropyl-2,6-dioxo-1H-purin-8-yl)propyl]phenoxy]acetic acid]
5 | 327 | 5700 | CCCn1c(=O)c2nc(C(C)Cc3ccc(OCC(=O)O)cc3)[nH]c2n(CCC)c1=O (stereo not drawn) [Compound 101699, 2-[4-[2-(2,3,6,9-Tetrahydro-1,3-dipropyl-2,6-dioxo-1H-purin-8-yl)propyl]phenoxy]acetic acid]
6 | 4.4 | 60 | CCCn1c(=O)c2nc(C(CC)c3ccc(OCC(=O)NCCN)cc3)[nH]c2n(CCC)c1=O (stereo not drawn) [Compound 102130, N-(2Aminoethyl)-2-[4-[1-(2,3,6,9-tetrahydro-1,3-dipropyl-2,6-dioxo-1H-purin-8-yl)propyl]phenoxy]-acetamide]
